Values quoted from earlier work in patent publication US6387904B2, “Method of treating glaucoma and ischemic retinopathy” (Pfizer INC, priority 1998, dated 2002).
Structures can show the parent of a compound that is named as a salt.

Columns and labels:
DA reuptake = molecular target: T1, DA reuptake (Homo sapiens, UniProt Q01959); conditions: neurotransmitter uptake inhibition; mean ± spread (n)
T1 construct: host or cells: central nervous system tissue

Norpinephrine reuptake = Norpinephrine reuptake (Homo sapiens, UniProt P23975); conditions: neurotransmitter uptake inhibition; mean ± spread (n)
Chain of Norpinephrine reuptake (P23975 whole entry): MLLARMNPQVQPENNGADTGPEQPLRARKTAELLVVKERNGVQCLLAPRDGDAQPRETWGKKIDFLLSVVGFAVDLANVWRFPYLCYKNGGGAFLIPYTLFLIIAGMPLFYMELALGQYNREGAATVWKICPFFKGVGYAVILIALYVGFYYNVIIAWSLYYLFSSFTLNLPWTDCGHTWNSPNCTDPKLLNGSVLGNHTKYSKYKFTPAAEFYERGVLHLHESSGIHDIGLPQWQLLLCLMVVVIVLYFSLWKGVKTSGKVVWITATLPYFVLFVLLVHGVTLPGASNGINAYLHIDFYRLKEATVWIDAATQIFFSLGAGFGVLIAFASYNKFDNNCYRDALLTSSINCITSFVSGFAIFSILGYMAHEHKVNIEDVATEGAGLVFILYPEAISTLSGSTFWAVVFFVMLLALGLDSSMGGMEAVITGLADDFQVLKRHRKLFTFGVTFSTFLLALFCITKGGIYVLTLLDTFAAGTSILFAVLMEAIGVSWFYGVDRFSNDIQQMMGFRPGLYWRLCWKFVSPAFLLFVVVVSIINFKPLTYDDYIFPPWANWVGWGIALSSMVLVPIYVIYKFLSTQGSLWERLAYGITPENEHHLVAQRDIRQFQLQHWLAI

5-HT1A = molecular target: T2, 5-HT1A (Homo sapiens, UniProt P08908); conditions: ligand [3H]-80H-DPAT; central nervous system tissue; mean ± spread (n)
T2 construct: host or cells: central nervous system tissue
T2 sequence (P08908 1-422): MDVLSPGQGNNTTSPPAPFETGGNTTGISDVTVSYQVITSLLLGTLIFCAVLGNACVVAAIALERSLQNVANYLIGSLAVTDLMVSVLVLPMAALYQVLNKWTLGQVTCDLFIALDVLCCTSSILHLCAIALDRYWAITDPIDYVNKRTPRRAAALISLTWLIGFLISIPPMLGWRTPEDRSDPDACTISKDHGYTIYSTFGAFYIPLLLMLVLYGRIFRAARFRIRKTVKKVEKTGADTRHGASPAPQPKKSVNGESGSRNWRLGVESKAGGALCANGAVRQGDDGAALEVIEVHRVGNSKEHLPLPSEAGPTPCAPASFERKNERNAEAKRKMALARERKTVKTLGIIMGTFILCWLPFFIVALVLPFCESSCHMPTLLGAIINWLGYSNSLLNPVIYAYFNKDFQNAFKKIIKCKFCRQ

T1 sequence (Q01959 whole entry): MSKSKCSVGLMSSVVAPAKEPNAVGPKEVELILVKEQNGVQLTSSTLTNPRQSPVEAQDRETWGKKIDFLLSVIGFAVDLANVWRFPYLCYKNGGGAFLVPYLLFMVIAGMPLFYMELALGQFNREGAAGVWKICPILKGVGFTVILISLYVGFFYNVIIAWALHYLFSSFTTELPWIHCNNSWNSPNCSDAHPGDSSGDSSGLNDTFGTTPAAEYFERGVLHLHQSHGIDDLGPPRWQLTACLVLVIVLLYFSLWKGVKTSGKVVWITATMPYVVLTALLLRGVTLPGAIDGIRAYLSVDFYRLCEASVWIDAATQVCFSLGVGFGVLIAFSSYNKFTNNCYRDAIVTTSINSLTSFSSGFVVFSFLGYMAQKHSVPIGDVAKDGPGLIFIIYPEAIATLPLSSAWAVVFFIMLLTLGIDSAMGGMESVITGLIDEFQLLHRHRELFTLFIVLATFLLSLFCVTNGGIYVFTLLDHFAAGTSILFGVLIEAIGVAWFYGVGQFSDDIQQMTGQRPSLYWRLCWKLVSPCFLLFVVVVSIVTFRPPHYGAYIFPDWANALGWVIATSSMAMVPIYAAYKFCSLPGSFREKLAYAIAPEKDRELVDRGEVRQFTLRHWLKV

O=C1Cc2cc(CCN3CCN(c4nsc5ccccc45)CC3)c(Cl)cc2N1 [ziprasidone, 5-(2-(4-(1,2-benzisothiazol-3-yl)piperazinyl)ethyl)-6-chlorooxindole hydrochloride]
pKi Neurotransmiter Reuptake Blockade: DA (DA reuptake): 6.58 ± 0.02 (3) | pKi Neurotransmiter Reuptake Blockade: Norpinephrine (Norpinephrine reuptake): 7.30 ± 0.01 (4) | pKi 5-HT1A (5-HT1A): 8.47 ± 0.05 (4)
